Assay results published in publication PMC8906008 (Antiviral Research, 2022).

Columns and labels:
[1] = tested on: SARS-CoV-2 nsp4-5-6 C145A; assay type: cell-based
[2] = molecular target: SARS-CoV-2 nsp5 (nsp4-5-6 WT) (Severe acute respiratory syndrome coronavirus 2, UniProt P0DTD1); test: cell-based

Molecule | Secondary screen nsp5-CA RLU (%) [1] [%] | dose-response curve in Rev-Nluc assay [2]
Cc1nc(Nc2ncc(C(=O)Nc3c(C)cccc3Cl)s2)cc(N2CCN(CCO)CC2)n1 [compound 21, Dasatinib (BMS-354825)] | 249.1 ± 19.9 | 
UNC2881 [compound 1] | 295.3 ± 15.8 | 
Cc1cnc(Nc2ccc(OCCN3CCCC3)cc2)nc1Nc1cccc(S(=O)(=O)NC(C)(C)C)c1 [compound 6, Fedratinib (SAR302503)] | >250 | 
COCCOc1ccc2c(c1)ncn2-c1ccc2cccc(N3CCC(N)CC3)c2n1 [compound 12, CP 673451] | 144.6 ± 10.3 | 
CC[C@@H]1C(=O)N(C)c2cnc(Nc3ccc(C(=O)N[C@H]4CC[C@H](N5CCN(CC6CC6)CC5)CC4)cc3OC)nc2N1C(C)C [compound 4, Volasertib (BI6727)] | >250 | 
CCOC(=O)C1=C(C)NC(C)=C(C(=O)OCC)C1c1ccccc1/C=C/C(=O)OC(C)(C)C [compound 3, Lacidipine] | 121.2 ± 7.4 | 
C=CC(=O)Nc1cccc(Nc2nc(Nc3ccc(N4CCN(C(C)=O)CC4)cc3OC)ncc2C(F)(F)F)c1 [compound 20, Rociletinib (CO-1686. AVL-301)] | 181.9 ± 10.4 | 
O=C(Nc1c[nH]nc1-c1nc2ccc(CN3CCOCC3)cc2[nH]1)NC1CC1 [compound 10, AT9283] | 71.3 ± 8.3 | 
Cc1cnc(Nc2ccc(N3CCN(C)CC3)cc2)nc1Nc1cccc(S(=O)(=O)NC(C)(C)C)c1 [compound 8, TG101209] | >250 | 
C=CC(=O)Nc1cc(Nc2nccc(-c3cn(C)c4ccccc34)n2)c(OC)cc1N(C)CCN(C)C [compound 23, Osimertinib (AZD9291)] | 43.2 ± 6.7 | 
CNCc1ccc(C)c(NC(=O)c2ccc(Nc3nc(-c4ccccc4)c4ccccc4n3)cc2)c1 [compound 16, BMS-833923 (XL139)] | 256.0 ± 74.0 | 
COc1cc(NC(=O)Nc2cccc(CNC(=O)O[C@H]3CCOC3)c2)ccc1-c1cnco1 [compound 5, Merimepodib] | 110.4 ± 10.8 | 
Cc1sc2c(c1C)C(c1ccc(Cl)cc1)=N[C@@H](CC(=O)Nc1ccc(O)cc1)c1nnc(C)n1-2 [compound 7, OTX015] | >250 | 
O=C(NC(Cc1cc(=O)[nH]c2ccccc12)C(=O)O)c1ccc(Cl)cc1 (stereo not drawn) [compound 43, Rebamipide] | 71.6 ± 6.5 | 
CC(C)(C(=O)c1cccnc1)c1cccnc1 [compound 44, Metyrapone] | 77.7 ± 2.4 | 
CC(C)(C)c1cnc(CSc2cnc(NC(=O)C3CCNCC3)s2)o1 [compound 17, SNS-032 (BMS-387032)] | 66.6 ± 3.4 | 
C1=C/COCc2cc(ccc2OCCN2CCCC2)Nc2nccc(n2)-c2cccc(c2)COC/1 [Compound #9, Pacritinib (SB1518)] | 98.3 ± 4.0 | irregular pattern
